# Experiments:
# Format in all cases: in vivo
# [1] = tested on: BALB/c (H-2d) mice; assay: β-gal-specific IgA in lung and vaginal lavages of immunized mice; conditions: i.n. immunization, day 38, versus β-gal alone (FIG. 4, FIG. 5)
# Description: Experimental protocol: at day 38, mice were sacrificed and the final sampling was performed. Vaginal and lung lavages were obtained by flushing the organs with 1 ml of PBS supplemented with 50 mM EDTA, 0.1% BSA, and 10 mM PMSF. Lavages were then centrifuged to remove debris (10 min at 3000×g), and supernatant fluids were stored at −20° C. To determine the concentration of total IgA present in the lung and vaginal lavages, serial dilutions of the corresponding samples were incubated in microtiter plates that were previously coated with goat anti-mouse IgA (Sigma Chemie), as capture antibodies (100 μl/well). Serial dilutions of purified mouse IgA (Sigma Chemie) were used to generate a standard curve.
# To investigate the capacity of c-diGMP and c-diAMP, respectively, to stimulate mucosal responses against antigens co-administered by the i.n. and s.c. route, the production of β-gal-specific IgA in lung was analyzed (FIG. 5 for c-diAMP and FIG. 4 for c-diGMP) from immunized animals, immunized according to the protocol described in Example 2.
# [2] = tested on: spleen cells; assay: [3H]thymidine proliferation of spleen cells from vaccinated mice restimulated in vitro with β-gal; conditions: day 38, in vitro restimulation with β-gal
# Description: Experimental protocol: Spleens were removed and pooled for analysis of cellular immune responses. Cells were grown in RPMI 1640 supplemented with 10% fetal calf serum, 100 U/ml of penicillin, 50 μg/ml of streptomycin, 5×10^−5 M 2-mercaptoethanol and 1 mM L-glutamine (GIBCO BRL, Karlsruhe, Germany) and maintained at 37° C. in a humidified 5% CO2 atmosphere. Spleen cell suspensions were adjusted to 5×10^6 cells/ml in complete medium, cells were seeded with 100 μl per well in a flat-bottomed 96-well microtiter plate (Nunc) and plates were incubated for 4 days in the presence of different concentrations of soluble β-gal. That is, T cell mediated immune responses were investigated at day 38 by measuring the proliferation after in vitro restimulation with β-Gal of cells which have been recovered from spleens before. Said spleen cells were obtained from vaccinated mice—said mice where immunized as described in Example 2—and incubated in the presence of different concentrations of the soluble β-Gal antigen. Each concentration was tested in quadruplicates. During the final 18 h of culture, 1 μCi of [3H]thymidine (Amersham International, Freiburg, Germany) was added to each well. Cells were then harvested on paper filters (Filtermat A; Wallac, Freiburg, Germany) by using a cell harvester (Inotech, Wohlen, Switzerland), and the amount of incorporated [3H]thymidine into the DNA of proliferating cells was determined by a β-scintillation counter (Wallac 1450, Micro-Trilux). The results are expressed as the arithmetic mean of [^3H]thymidine uptake in cpm.
# Thirty eight days following vaccination, spleens cells were purified, re-stimulated in vitro in the presence of various amounts of β-galactosidase and their proliferative capacity was estimated by measuring the incorporation of [3H]thymidine into their DNA using a β-scintillation counter.
# [3] = tested on: spleen cells; assay: ELISPOT of cytokine producing spleen cells from vaccinated mice; conditions: i.n.; restimulation with CD8 epitope peptide (FIG. 10)
# Description: Experimental protocol: Spleens from vaccinated mice were removed and pooled for analysis of cellular immune responses. The protocol for vaccination was identical to the protocol described in Example 2. Cells were grown in RPMI 1640 supplemented with 10% fetal calf serum, 100 U/ml of penicillin, 50 μg/ml of streptomycin, 5×10^−5 M 2-mercaptoethanol and 1 mM L-glutamine (GIBCO BRL, Karlsruhe, Germany) and maintained at 37° C. in a humidified 5% CO2 atmosphere. […]
# For coating ELISPOT plates, said plates were incubated with 100 μl/well of purified capture antibody (10 μg/ml in coating buffer) at 4° C. overnight. After 6× washing steps, the plates were blocked with 200 μl/well of complete RPMI-1640 at room temperature for 1 hour. The activated cells were seeded at 100 μl per well and incubate at 37° C., in a 5% CO2 humidified incubator for 24 hours or 48h hours. After 5× washing steps with washing buffer and 1× step with distilled water, 100 μl/well of the biotinylated detection antibody with a concentration of 1 μg/ml in Assay Diluent was added and incubated at room temperature for 2 hrs. After further washing steps 100 μl/well of the AV-HRP at 1/1000 dilution in Assay Diluent was added and incubated at room temperature for 30 minutes. After further washing steps 100 μl/well of AEC Substrate Solution was added and developed at room temperature for 10-60 minutes until visible spots appeared. After washing steps with (3×) with 200 μl/well distilled water, the plates were air-dried and analyzed by counting the spots by an ELISPOT reader. Each concentration was tested in triplicates.
# [4] = tested on: BALB/c (H-2d) mice; assay: Serum β-gal-specific IgG ELISA after i.n. or s.c. immunization with β-gal plus adjuvant; conditions: i.n., β-gal 30 μg/dose with or without adjuvant 10 μg; end point titers (FIG. 11; FIG. 2)
# Description: Experimental protocol: six-eight weeks-old female BALB/c (H-2d) mice were purchased from Harlan Winkelmann GmbH (Borchen, Germany) and treated in accordance with local and European Community guidelines. Groups of 5 mice each were immunized on day 1, 14 and 28 with 30 μg of β-gal (Boehringer, Mannheim, Germany), alone or as an admixture with 10 μg c-diGMP or with 10 μpg c-diAMP. For intranasal (i.n.) immunization, 10 μl were applied to each naris, whereas for the s.c. injection β-gal with or without c-diGMP or c-diAMP was resuspended in a volume of 20 μl PBS per animal. Serum samples were collected at day 38 after immunization and stored at −20° C. prior to determination of β-gal-specific antibodies. 96-well Nunc-Immuno MaxiSorp assay plates (Nunc, Roskilde, Denmark) were coated with 100 μl of β-gal (Boehringer, Mannheim, Germany) at 5 μg/ml in 0.05 M carbonate buffer (pH 8.2) per well. Serial two-fold dilutions of sera in PBS with 1% BSA and 0.05% Tween 20 were added (100 μl/well), and plates incubated for 16h at 37° C. After washing, biotinylated γ-chain-specific goat anti-mouse IgG (Sigma Chemie, Deisenhofen, Germany) was added, and plates were incubated for an additional 1 h at 37° C. After four washes, 100 μl of peroxidase-conjugated streptavidin (Pharmingen) was added to cells and plates incubated at 37° C. for 30 min. After four washes, reactions were developed with ABTS in 0.1 M citrate-phosphate buffer (pH 4.35) containing 0.01% H2O2. Results for c-diGMP are shown as OD405 values after serial two-fold dilutions (FIG. 2). […] The effect of c-diGMP as an adjuvant was independent of the route of administration.
# In contrast, in the presence of c-diAMP, i.n. administration of β-gal induced very high titers of specific IgG in all mice with titers higher than 500,000 (FIG. 11).
# In view of the above in vitro results, additional in vivo studies have been conducted. […] Thus, the capacity of c-diGMP and c-diAMP, respectively, to stimulate efficient humoral immune responses was evaluated, by determining the serum titers of β-gal-specific antibodies in vaccinated mice.
substance,measurement,setting,value
"β-gal: soluble model antigen β-galactosidase (Boehringer), given alone as comparator without adjuvant",β-gal-specific IgA in lung lavages,[1],weak production
same,"proliferation of spleen cells, i.n. immunization","[2]; i.n., low amounts of antigen (FIG. 6)",failed to induce detectable cellular proliferation
same,"proliferation of spleen cells, s.c. immunization","[2]; s.c., [3H]thymidine (FIG. 6)",significant proliferative response
same,"IFNγ producing cells, i.n. vaccination",[3],scarcely detectable
same,"β-gal specific IgG titer in sera, i.n. administration",[4],very low antibody titers
